Data on three molecules can be found in US8420657B2 (Novartis AG, priority 2008, dated 2013).

Each structure is given as a SMILES string. Read-outs that look alike come from different tables or passages of the source.

Common to all, as to format: biochemical
The target in one assay is T1, GST-JAK2(808-1132) (Homo sapiens, UniProt O60674).
T1 construct: GST-JAK2(808-1132); purchased Invitrogen (Carlsbad, USA) #4288
Kind of assay: JAK2 kinase assay (Caliper mobility shift, LabChip 3000). A digest of the protocol: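 Recombinant GST-JAK2(808-1132) kinase domain with FITC-labelled JAK3tide peptide substrate and ATP; 60 min at 30 °C, EDTA stop. Substrate/product ratio read by microfluidic mobility shift; compounds at 8 final concentrations, 10 to 0.003 μM.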

The next assay has as its target T2, cMet (Homo sapiens, UniProt P08581).
T2 construct: using the recombinant domains of cMet, cKit, ALK and PDGFRalpha kinases
Kind of assay: cMet LanthaScreen TR-FRET kinase phosphorylation assay. Particulars: recombinant kinase domain. The procedure: (§1) The compounds are assayed in an antibody based kinase phosphorylation assay using the recombinant domains of cMet, cKit, ALK and PDGFRalpha kinases and a generic phospho-tyrosine peptide substrate. LanthaScreen™ is the detection of Time-Resolved Fluorescence Resonance Energy Transfer (TR-FRET) using lanthanide chelates to measure interactions between various binding partners. In a TR-FRET kinase assay, a long-lifetime lanthanide donor species is conjugated to an antibody that specifically binds to a phosphorylated product of a kinase reaction that is labeled with a suitable acceptor fluorophore. This antibody-mediated interaction brings the lanthanide donor and the acceptor into proximity such that resonance energy transfer can take place, resulting in a detectible increase in FRET. The LanthaScreen is run at ambient temperature and terminated by the addition of stop solution, followed by Tb-labeled P-20 antibody. After incubating in the dark, the plates are transferred to a fluorescence reader for counting. The effect of compound on the enzymatic activity is in all assays obtained from the linear progress curves and determined from one reading (end point measurement).
On the technique in general: TR-FRET usually uses a lanthanide donor and a delayed reading to cut background.

The next assay deals with T3, ALK (Homo sapiens, UniProt Q9UM73).
T3 construct: using the recombinant domains of cMet, cKit, ALK and PDGFRalpha kinases
Kind of assay: ALK LanthaScreen TR-FRET kinase phosphorylation assay. Particulars: recombinant kinase domain. The procedure: as §1

A further assay deals with T4, PDGFRalpha (Homo sapiens, UniProt P16234).
T4 construct: using the recombinant domains of cMet, cKit, ALK and PDGFRalpha kinases
Kind of assay: PDGFRalpha LanthaScreen TR-FRET kinase phosphorylation assay. As to conditions: recombinant kinase domain, read-out: PDGFRa/IC50. Here is the method:
as §1

For the next assay, the target named is T5, cKit (Homo sapiens, UniProt P10721).
T5 construct: using the recombinant domains of cMet, cKit, ALK and PDGFRalpha kinases
The experiment in a line: cKit LanthaScreen TR-FRET kinase phosphorylation assay. As to conditions: recombinant kinase domain. The procedure:
as §1

T2 sequence (P08581 1078-1345 limits assumed): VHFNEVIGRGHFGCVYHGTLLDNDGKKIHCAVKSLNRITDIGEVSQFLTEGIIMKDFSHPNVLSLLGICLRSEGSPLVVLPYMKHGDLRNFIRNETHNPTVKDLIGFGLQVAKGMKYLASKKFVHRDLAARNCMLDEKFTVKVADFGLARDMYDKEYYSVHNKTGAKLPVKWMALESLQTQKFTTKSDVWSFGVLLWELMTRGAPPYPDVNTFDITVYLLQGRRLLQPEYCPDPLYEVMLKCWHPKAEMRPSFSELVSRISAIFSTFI
T4 sequence (P16234 593-954 limits assumed, species assumed): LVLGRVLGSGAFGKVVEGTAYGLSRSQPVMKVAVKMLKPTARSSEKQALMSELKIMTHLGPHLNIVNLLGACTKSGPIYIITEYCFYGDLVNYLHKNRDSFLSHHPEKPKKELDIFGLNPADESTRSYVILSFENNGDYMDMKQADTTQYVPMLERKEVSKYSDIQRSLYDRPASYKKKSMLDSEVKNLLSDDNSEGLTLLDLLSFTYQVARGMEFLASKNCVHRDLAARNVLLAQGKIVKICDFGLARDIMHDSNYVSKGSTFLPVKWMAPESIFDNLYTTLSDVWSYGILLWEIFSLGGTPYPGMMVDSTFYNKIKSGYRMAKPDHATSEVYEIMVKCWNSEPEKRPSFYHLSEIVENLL
T3 sequence (Q9UM73 1116-1392 limits assumed, species assumed): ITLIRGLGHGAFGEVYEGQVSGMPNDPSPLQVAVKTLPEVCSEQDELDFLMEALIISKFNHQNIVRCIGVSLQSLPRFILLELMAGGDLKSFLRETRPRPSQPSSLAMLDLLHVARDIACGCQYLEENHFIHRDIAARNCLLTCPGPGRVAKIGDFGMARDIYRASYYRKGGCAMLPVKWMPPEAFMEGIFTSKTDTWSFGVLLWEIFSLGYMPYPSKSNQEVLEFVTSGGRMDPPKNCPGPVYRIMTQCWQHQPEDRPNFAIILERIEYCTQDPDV
T5 sequence (P10721 589-937 limits assumed): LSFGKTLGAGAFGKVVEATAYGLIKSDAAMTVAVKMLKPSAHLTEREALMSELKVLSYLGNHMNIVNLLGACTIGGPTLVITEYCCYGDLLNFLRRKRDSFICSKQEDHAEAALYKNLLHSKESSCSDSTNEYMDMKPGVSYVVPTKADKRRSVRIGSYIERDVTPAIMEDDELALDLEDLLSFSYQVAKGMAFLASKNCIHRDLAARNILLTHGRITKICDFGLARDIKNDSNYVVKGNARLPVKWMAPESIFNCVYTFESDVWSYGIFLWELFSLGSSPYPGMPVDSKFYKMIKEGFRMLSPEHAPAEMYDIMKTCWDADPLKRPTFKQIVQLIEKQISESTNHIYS
T1 sequence (O60674 808-1132): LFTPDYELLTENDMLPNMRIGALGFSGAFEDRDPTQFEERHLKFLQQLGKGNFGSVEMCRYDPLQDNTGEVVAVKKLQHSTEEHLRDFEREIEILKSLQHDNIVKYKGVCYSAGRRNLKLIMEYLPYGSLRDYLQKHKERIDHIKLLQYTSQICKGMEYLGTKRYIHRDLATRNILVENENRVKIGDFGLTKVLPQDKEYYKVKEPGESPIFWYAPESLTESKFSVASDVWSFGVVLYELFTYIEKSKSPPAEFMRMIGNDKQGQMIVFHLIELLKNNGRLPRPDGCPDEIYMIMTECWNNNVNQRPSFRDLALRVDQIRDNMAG

In the case of `N#Cc1ccc(Nc2ncc3ccn(-c4ccc(C(=O)N5CCOCC5)cc4)c3n2)cn1` [Example 235, 5-{7-[4-(Morpholine-4-carbonyl)-phenyl]-7H-pyrrolo[2,3-d]pyrimidin-2-ylamino}-pyridine-2-carbonitrile], the IC50 was 0.056 µM at GST-JAK2(808-1132); 0.056 µM on GST-JAK2(808-1132) (Table 3); above 10 µM on cMet; above 10 µM on ALK; above 10 µM at PDGFRalpha; above 10 µM on cKit.
On to `CN1CCN(c2ccc(Nc3ncc4ccn(-c5ccc(C#N)cc5)c4n3)cn2)CC1` [Example 278, 4-{2-[6-(4-Methyl-piperazin-1-yl)-pyridin-3-ylamino]-pyrrolo[2,3-d]pyrimidin-7-yl}-benzonitrile], for which the IC50 at GST-JAK2(808-1132) was 0.011 µM; on GST-JAK2(808-1132) (Table 3) it was 0.011 µM; on cMet it was 1.4 µM; on ALK, above 10 µM; on PDGFRalpha, 2.65 µM; at cKit it was 1.35 µM.
With `OCCN1CCOC[C@@H]1c1ccc(Nc2ncc3ccn(-c4cc(F)c(CN5CCOCC5)c(F)c4)c3n2)cc1` [Example 521, 2-((S)-3-{4-[7-(3,5-difluoro-4-morpholin-4-ylmethyl-phenyl)-7H-pyrrolo[2,3-d]pyrimidin-2-ylamino]-phenyl}-morpholin-4-yl)-ethanol], the IC50 at GST-JAK2(808-1132) is at most 0.003 µM; at GST-JAK2(808-1132) (Table 3) it was below 0.003 µM; at cMet it was 3.5 µM; on ALK, above 10 µM; on PDGFRalpha, 2.8 µM; on cKit it was 2.9 µM.
